Test results as given in patent US20250314641A1, “OBLIQUE LINE SCANNER SYSTEMS AND METHODS FOR HIGH THROUGHPUT SINGLE MOLECULE TRACKING IN LIVING CELLS” (EIKON THERAPEUTICS, INC., priority 2022, published 2025).

Tested on: Halo-PCNA labeled U2OS cells
Experiment: Cell cycle phase assignment by machine learning model in Halo-PCNA U2OS cells
Assay type: cell-based
Settings: 2 mM Thymidine (S-phase block) or 10 mM RO-3306 (G2-M block)
Experimental: FIGS. 20A-20F illustrate that OLS can be applied to capture the inter and intracellular heterogeneity of single protein dynamics. FIG. 20A depicts the analysis of sources of variance in SMT for KEAP1 measured under either OLS or HILO illumination. The contribution of cell to cell variation is 17-32 fold greater than that of FOV level or well to well variances, respectively. FIG. 20B depicts representative images of Halo-PCNA labeled cells treated with 2 mM Thymidine or 10 mM RO-3306 (top). Cell cycle prediction from a machine learning (ML) model used to color cell by cycle phase (bottom). FIG. 20C depicts the quantification of the fraction of cells in each cell phase in response to cycle block treatments in FIG. 20B. The following number of cells were analyzed for each condition: 34,067 for DMSO, 3,831 for RO-3306 and 6,044 for thymidine. […]
Time-lapse microscopy was conducted on Halo-PCNA labeled with 50 nM JFX650, to achieve near-saturating labeling, for 12 hours at 12 frames per hour (FIG. 21A). […] When cells in each cell phase were analyzed separately, it became apparent that the slow-moving population of PCNA was exclusively found in cell predicted to be in S-phase and that there was a marked decrease in the fast-moving population (FIG. 20E). […]
Cell cycle as provided above can be automatically determined using an image (e.g., an image of JF549-labeled PCNA). […]

SMILES | fraction of cells assigned to cell cycle phases
O=C1NC(=NCc2cccs2)S/C1=C\c1ccc2ncccc2c1 [RO-3306] | expected enrichment in the fraction of cells assigned to the respective cell phases
Cc1cn([C@H]2C[C@H](O)[C@@H](CO)O2)c(=O)[nH]c1=O [thymidine] | expected enrichment in the fraction of cells assigned to the respective cell phases
